Experimental data reported in patent publication US8048919B2, “Use of ethyl lactate as an excipient for pharmaceutical compositions” (Archer Daniels Midland Company, priority 2004, dated 2011).

Test: Resistance of high purity ethyl lactate to peroxide formation in air (Quantofix test paper)
Format: physicochemical
Settings: for level of peroxide: 250 ml ethyl lactate + 0.3 g agent, stirred in air
Experimental: In the procedure used, 250 ml of high purity ethyl lactate containing 0.0 ppm of peroxide as measured with Quantofix™ test paper was added to each of four beakers. The first beaker served as a control and was not treated with any chemical agent. The second beaker was treated with 0.3 g of BHT. The third beaker was treated with 0.3 g of cysteine and the fourth beaker was treated with 0.3 g of methionine. […] The level of peroxide in each of the ethyl lactate samples was monitored and is reported as a function of time in Table 2.

With `CSCC[C@H](N)C(=O)O` [Methionine, methionine] the level of peroxide (time 0 minutes) was 0.0 ppm, the level of peroxide (time 15 minutes) was 0.0 ppm and the level of peroxide (time 30 minutes) was 0.0 ppm. The level of peroxide (time 60 minutes) was 0.5 ppm, the level of peroxide (time 75 minutes) was 0.5-2.0 ppm and the level of peroxide (time 90 minutes) was 0.5-2.0 ppm. For the same compound, the level of peroxide (time 105 minutes) was 2.0 ppm, the level of peroxide (time 120 minutes) was 2.0 ppm and the level of peroxide (time 150 minutes) was 2.0 ppm. For the same compound, the level of peroxide (time 180 minutes) was 5.0 ppm, the level of peroxide (time 240 minutes) was 2.0-5.0 ppm and the level of peroxide (time 300 minutes) was 5.0 ppm. It also gave a level of peroxide (time 360 minutes) of 5.0 ppm and a level of peroxide (time 1440 minutes) of 5.0 ppm.
`N[C@@H](CS)C(=O)O` [Cysteine, cysteine] showed a level of peroxide (time 0 minutes) of 0.0 ppm, a level of peroxide (time 15 minutes) of 0.0 ppm and a level of peroxide (time 30 minutes) of 0.0 ppm. The level of peroxide (time 60 minutes) was 0.0 ppm, the level of peroxide (time 75 minutes) was 0.0 ppm and the level of peroxide (time 90 minutes) was 0.0 ppm. For the same compound, the level of peroxide (time 105 minutes) was 0.0 ppm, the level of peroxide (time 120 minutes) was 0.0 ppm and the level of peroxide (time 150 minutes) was 0.0 ppm. It also gave a level of peroxide (time 180 minutes) of 0.0 ppm, a level of peroxide (time 240 minutes) of 0.0 ppm and a level of peroxide (time 300 minutes) of 0.0 ppm. The level of peroxide (time 360 minutes) was 0.0 ppm and the level of peroxide (time 1440 minutes) was 0.0-0.5 ppm.
With `Cc1cc(C(C)(C)C)c(O)c(C(C)(C)C)c1` [BHT, butylated hydroxyl toluene] the level of peroxide (time 0 minutes) was 0.0 ppm, the level of peroxide (time 15 minutes) was 0.0 ppm and the level of peroxide (time 30 minutes) was 0.0 ppm. For the same compound, the level of peroxide (time 60 minutes) was 0.0 ppm, the level of peroxide (time 75 minutes) was 0.0 ppm and the level of peroxide (time 90 minutes) was 0.0 ppm. It also gave a level of peroxide (time 105 minutes) of 0.0 ppm, a level of peroxide (time 120 minutes) of 0.0 ppm and a level of peroxide (time 150 minutes) of 0.0 ppm. For the same compound, the level of peroxide (time 180 minutes) was 0.0 ppm, the level of peroxide (time 240 minutes) was 0.0 ppm and the level of peroxide (time 300 minutes) was 0.0 ppm. The level of peroxide (time 360 minutes) was 0.0 ppm, the level of peroxide (time 1440 minutes) was 0.0 ppm and the “effectiveness as stabilizer against peroxide generation” value (compared with the other compounds evaluated) was “most effective”. It also gave a Gardner color rating (ethyl lactate stabilized with BHT, throughout the trial period) of 1.
